Results reported in paper PMC4912613, “A broad analysis of resistance development in the malaria parasite” (Nature Communications, 2016).
pEC50: −log10 of the molar value. Where two headings read alike, the source gives them in different places.

Key:
[1] = test system: CYTbQi (cytb G33A, parent Dd2); test: Cross-resistance EC50 assay, CYTbQi; assay type: cell-based; conditions: Plasmodium falciparum, SYBR green 72 hour assay, synchronized parasites, 384-well format
Description: To evaluate potential overlapping activity against known antimalarial drug targets, we performed dose-response studies with each compound against our assembled set of drug-resistant lines and their corresponding parents, in an asexual blood stage proliferation assay (Table 1). Comparisons were made to the drug-sensitive strain 3D7 when a parent was unavailable (TM90C2A, W2 and Dd2). As laboratories conducted EC50 assays with different strains and protocols, all comparisons were made between assays from the same laboratory and under the same assay conditions. Compounds displaying >5-fold EC50 shifts relative to the parent or sensitive strain were flagged as having potentially non-novel targets. Average fold shifts per strain ranged from 0.82 to 2.34, with a median of 1.23 indicating there was not common resistance to any one resistant clone. No resistance patterns were observed when classifying the compounds based on chemical structure, but this was not surprising given the diversity of compounds chosen. On the other hand, given that these confirmed compounds were derived from larger unconfirmed hit lists to which some filtration criteria may have been applied (for example, elimination of obvious dihydrofolate reductase inhibitors[32]), some[10][11][12][13] pre-existing bias may exist in the set. […]
Alternatively, a SYBR Green-based proliferation approach was used for the 72-h assay, as previously described. Briefly, a culture of either synchronized or asynchronous parasitized RBCs (0.3% parasitemia and 4% haematocrit) in screening medium (identical to supplemented medium above except no serum was added) was exposed to serial drug dilutions. Plates were incubated at 37 °C and gassed with 93% N2, 4% CO2 and 3% O2 for 72 h. Following incubation, 10 × SYBR Green I (Invitrogen; supplied in 10,000 × concentration) in lysis buffer ([…], 5 mM EDTA, 0.16% Saponin wt per vol and 1.6% Triton X vol per vol) was added to the wells and the plates were incubated overnight at room temperature before plate reading. EC50 assays were repeated three times, taking the average EC50 value from each assay set, and removing any outliers using a single iteration of Grubbs' test, eliminating values with z-scores above the critical z-value (α=0.05). The raw EC50 values for synchronized parasites assayed in a 384-well format are listed in Supplementary Data 4. The raw EC50 values for asynchronous parasites assayed in a 96 or 1536-well format are listed in Supplementary Data 5.
EC50 values for each strain were compared with those of the corresponding parent strain to determine fold-shift changes and identify resistance. To minimize the cause variance between assays, all comparisons were conducted between strains assayed under identical conditions. A one-way ANOVA followed by a Dunnet's post-test was conducted in GraphPad Prism to identify significant changes between the parent and resistant strain.

[2] = test system: 3D7; test: Cross-resistance EC50 assay, 3D7 parent / sensitive strain; assay type: cell-based; conditions: Plasmodium falciparum; for EC50: asynchronized parasites, 96-well or 1536-well format, read-out: 3D7 (PARENT) EC50 (µM) Average EC50; for pEC50: synchronized parasites
Description: Multidrug resistance alleles, including mutations in P. falciparum chloroquine resistance transporter (pfcrt) and P. falciparum multi-drug resistance transporter 1 (pfmdr1) are very common in field isolates. Therefore, we sought to assess the degree to which pre-existing resistance alleles would contribute to a loss of potency for this diverse collection of small molecule compounds. Fifteen clones derived from three main parent lines were chosen to maximize diversity in mutated pathways and genetic backgrounds, thus representing the variety of resistance seen in the field: 3D7 (ref. [23]), W2 (ref. [24]) or Dd2 (ref. [25]). The 3D7 line originates from the clone of a Netherlands clinical isolate strain[23][26] and is generally considered to be drug sensitive, though it does convey resistance to sulfadoxine. Conversely, W2 (ref. [24], [27]) and Dd2 (ref. [25]) are multi-drug-resistant lines originating from the Indochina III/CDC isolate, which contain point mutations in pfcrt as well as amplifications in pfmdr1 and GTP cyclohydrolase.
To evaluate potential overlapping activity against known antimalarial drug targets, we performed dose-response studies with each compound against our assembled set of drug-resistant lines and their corresponding parents, in an asexual blood stage proliferation assay (Table 1). Comparisons were made to the drug-sensitive strain 3D7 when a parent was unavailable (TM90C2A, W2 and Dd2). As laboratories conducted EC50 assays with different strains and protocols, all comparisons were made between assays from the same laboratory and under the same assay conditions. Compounds displaying >5-fold EC50 shifts relative to the parent or sensitive strain were flagged as having potentially non-novel targets. Average fold shifts per strain ranged from 0.82 to 2.34, with a median of 1.23 indicating there was not common resistance to any one resistant clone. No resistance patterns were observed when classifying the compounds based on chemical structure, but this was not surprising given the diversity of compounds chosen. On the other hand, given that these confirmed compounds were derived from larger unconfirmed hit lists to which some filtration criteria may have been applied (for example, elimination of obvious dihydrofolate reductase inhibitors[32]), some[10][11][12][13] pre-existing bias may exist in the set.
The 48-h assay was carried out in a 96-well format following standard methods using the ^3H-hypoxanthine incorporation assay. The raw EC50 values corresponding to this assay can be found in Supplementary Data 3. Briefly, this assay relies on the parasite incorporation of labelled hypoxanthine that is proportional to P. falciparum growth. A culture of parasitized RBCs (0.5% parasitemia with a percentage of ring stage higher than 70% of total parasitemia, 2.0% haematocrit) in RPMI-1640, […] and 5 μM hypoxanthine was exposed to drug serial dilutions. Plates were incubated for 24 h at 37 °C, 5% CO2, 5% O2 and 90% N2. After 24 h of incubation, ^3H-hypoxanthine was added and plates were incubated for an additional 24-h period. After that, parasites were harvested on a glass fibre filter using a TOMTEC Cell Harvester 96. Filters were dried and melt-on scintillator sheets were used to determine the incorporation of ^3H-hypoxanthine. Radioactivity was measured using a microbeta counter. Data were normalized using the incorporation of the positive (parasitized RBCs without drug) and negative (same culture with artesunate at 2 μM) controls. All assays were conducted in triplicate using three independently grown cultures, and EC50 values were determined using the XLfit add-in module for Excel (version 2.3.1) from Grafit (version 5.3.1.3), where parameter h is the assay hill slope, x is the compound concentration and y is the inhibition of growth effect. The XLfit equation is: […]
Alternatively, a SYBR Green-based proliferation approach was used for the 72-h assay, as previously described. […]

[3] = SYBR green 72 hour assay, 3D7 parent
[4] = SYBR green 72 hour assay, 384-well format, 3D7 parent, read-out: 3D7 (PARENT) Average EC50
[5] = hypoxanthine 48-hour assay, 96-well format, strain 3D7 (parent), read-out: 3D7 (PARENT) Average EC50
[6] = hypoxanthine 48-hour assay, 96-well format, strain 3D7-C9-WT (parent of PfATP4 Mut3), read-out: 3D7-C9-WT (PARENT) Average EC50
[7] = SYBR green 72 hour assay, 384-well format, strain 3D7 (parent), read-out: 3D7 (PARENT) Average EC50

Row | Compound | pEC50 ([1]; DD2, CYTbQi strain) | EC50 [2, 3] [µM] | pEC50 [2, 4] | pEC50 [2, 5] | pEC50 [2, 6] | pEC50 ([1]; strain CYTbQi (Dd2 parent)) | pEC50 [2, 7]
1 | COc1ccc2c3c([nH]c2c1)[C@H](CO)N(C(C)=O)CC31CCN(C(=O)Nc2ccccc2F)CC1 [MMV673482] | 7.08 | 0.039 | 6.90 | 6.63 | 6.63 |  | 
2 | CN(C)Cc1ccc(-c2cc3c(-c4ccc(CN(C)C)cc4)ccnc3[nH]2)cc1.O=C(O)C(F)(F)F [MMV022224] |  | 0.224 |  | 6.46 | 6.45 | 6.49 | 6.62
3 | COc1cc(C(=O)ON=C(N)Cc2cccc3ccccc23)cc(OC)c1OC [MMV666687] |  | 1 |  | 6.45 | 6.53 | 6.23 | 6.05
4 | O=C(Nc1ccc(Cl)c(Cl)c1)Nc1ccc(Cl)c(Cl)c1 [MMV665852] |  | 1.55 |  | 5.91 |  | 6.00 | 5.94
5 | Nc1ccc(-c2nc3cc(Oc4ccc(Oc5ccc6[nH]c(-c7ccc(N)cc7)nc6c5)cc4)ccc3[nH]2)cc1 [MMV011895] |  | 0.24 |  | 6.80 |  | 6.57 | 6.77
6 | CC(C)c1cccc(C(NC(=O)C2Cc3ccccc3CN2C(=O)c2cccc(N3CCOCC3)c2)C2CCCC2)c1 (centres unmarked) [MMV028038] |  | 1.09 |  | 6.24 | 6.08 | 6.47 | 6.09
7 | FC(F)(F)c1cccc(Nc2nc3ccccc3nc2Nc2cccc(C(F)(F)F)c2)c1 [MMV665794] |  | 0.318 |  | 6.99 |  | 6.89 | 6.79
8 | c1cc(-c2cnc3ccc(-c4ccc(N5CCOCC5)cc4)nn23)ccn1 [MMV668311] |  | 0.014 |  | 7.30 | 7.74 | 7.18 | 7.48
9 | CCN(CC)CCn1c(=N)n(CC(O)c2ccc(Cl)c(Cl)c2)c2ccccc21.Cl (centres unmarked) [MMV000248] |  | 0.138 |  | 6.51 | 6.40 | 6.47 | 6.63
10 | COc1ccc(NC(=O)N2CCCCN3[C@H](CN)[C@H](c4ccc(C#Cc5ccccc5)cc4)[C@@H]3C2)cc1 [BRD1095] | 7.74 | 0.00215 | 7.66 |  |  |  | 
11 | Cc1cc(Nc2ccc(OCc3ccccc3)cc2)nc2cc(O)ccc12 [MMV007181] |  | 0.086 |  | 6.46 | 6.74 | 6.84 | 6.82
12 | CC(NCc1ccccc1)c1cc(Cl)ccc1O (centres unmarked) [MMV665789] |  | 0.17 |  | 5.90 | 5.90 | 6.17 | 6.00
13 | COc1cc2cc(C(=O)Nc3ccccc3)c(N)nc2cc1OC [MMV006767] |  | 1.51 |  | 6.02 | 6.13 | 5.72 | 6.12
14 | COc1ccc(N2CCN(C(CNC(=O)C3CCCCC3)c3ccc4c(c3)OCO4)CC2)cc1 (centres unmarked) [MMV019662] |  | 0.358 |  | 6.47 | 6.09 | 6.35 | 6.01
15 | CN1CCN(c2ccc(Nc3c4ccccc4nc4ccccc34)cc2)CC1 [MMV006172] |  | 0.126 |  | 7.05 | 7.01 | 6.97 | 7.34
16 | CCC(C)NCC(O)(c1ccc(Cl)cc1)c1ccc(Cl)cc1 (centres unmarked) [MMV665928] |  | 0.028 |  | 6.31 | 5.94 | 6.31 | 6.01
17 | OC(CNC1CCCCC1)Cn1c2ccc(I)cc2c2cc(I)ccc21 (centres unmarked) [MMV665882] |  | 0.023 |  | 7.12 | 6.80 | 7.60 | 7.46
18 | Brc1ccc(Nc2nc3ccccc3nc2Nc2ccc(Br)cc2)cc1 [MMV007224] |  | 0.709 |  | 6.55 | 6.40 | 6.49 | 6.44
19 | Cc1nc2ccc3ccc(CNc4ccc(C(=O)CC(CCC(=O)O)C(=O)O)cc4)cc3c2c(=O)[nH]1.Cl (centres unmarked) [MMV027634] |  | 0.148 |  | 7.60 | 7.38 | 7.38 | 7.54
20 | CNCc1ccc2nc(-c3coc(Cc4cc(Cl)ccc4OCC(C)C)n3)[nH]c2c1.Cl.Cl [MMV026596] |  | 0.304 |  | 6.42 | 6.33 | 6.37 | 6.49
21 | COc1ccccc1CNC(=O)CCn1c(=O)[nH]c2ccsc2c1=O [MMV019066] |  | 0.007 |  | 5.78 | 5.66 | 7.13 | 6.77
22 | CN(C)CCCNCc1ccc(-c2ccc(Cl)c(Cl)c2)o1 [MMV673964] | 6.50 | 0.068 | 6.54 | 6.20 | 6.24 |  | 
23 | Cc1c(C)n(Cc2ccc(F)cc2)c2ccc(C(=O)NCc3ccco3)cc12 [MMV008149] |  | 1.06 |  | 6.11 | 5.56 | 7.06 | 6.45
24 | Nc1ccc(-c2nc3cc(Cc4ccc5[nH]c(-c6ccc(N)cc6)nc5c4)ccc3[nH]2)cc1 [MMV665943] |  | 0.034 |  | 6.50 | 6.70 | 6.35 | 6.43
25 | COc1ccc(C(=O)C2CC2c2ccc(Cl)cc2)cc1 (centres unmarked) [MMV665924] |  | 2.46 |  | 6.08 | 6.31 | 5.95 | 6.01
26 | c1cncc(-c2cc(N3CCC(CN4CCOCC4)CC3)nc(-c3ccncc3)n2)c1 [MMV668399] |  | 0.322 |  | 7.09 | 7.14 | 6.79 | 7.05
